Assay results from US6852737B2 (Recordati Ireland Limited, priority 2001, dated 2005).
Entries after “also recorded” stand apart in the source; their conditions may differ. Counter-ions that a name gives are not always drawn. Marks after values point to notes of the source that are not given here.

Experiments:
[1] = Hygroscopicity (DVS analysis); type: physicochemical; conditions: whole RH range tested (0-95%), 25° C.
Experimental: The hygroscopicity of both crystalline Forms (I) and (II) was measured with DVS analysis by means of a water absorption analyzer (SURFACE MEASUREMENT SYSTEM, Marion, Buckinghamshire, UK) according to the following working conditions: […]

[2] = Relative bioavailability in man; type: in vivo
Experimental: Blood samples were taken at 15 points from time 0 to 24 h post-dosing and plasma concentrations of lercanidipine were determined with a stereoselective analytical method HPLC-MS/MS as described in Example 19a, as validated for man at the same concentration intervals.

[3] = Stability of crystalline forms; type: physicochemical; conditions: hydrochloride
[4] = Bioavailability of crystalline forms in dog; type: in vivo, Beagle dogs
Experimental: A study was carried out on six Beagle dogs to evaluate the bioavailability of crystalline Forms (I) and (II).
Blood samples were taken at given times and plasma concentrations of lercanidipine were determined with a stereoselective analytical method HPLC-MS/MS, according to the following working conditions;
Lercanidipine was extracted from dog plasma by means of a liquid-liquid extraction with a mixture of n-hexane and ethyl ether. The dry residue of the organic phase was taken up with a mixture of methanol and water and a liquid-phase chromatographic separation (LC) was carried out; the two enantiomers of lercanidipine were separated on a CHIROBIOTIC V column (Vancomycin) (particle size […], column size 150×4.6 mm (ASTEC, NJ, USA)) and were detected with a mass spectrometer (MS/MS) by using an electrospray technique.
The analytical method was validated in a concentration range between 0.1 and 20 ng/ml of plasma for both enantiomers. The method has shown to be specific with an accuracy of 15%. The average concentrations of lercanidipine in the tables represent the sum of both enantiomers.

isolated rat aorta = conditions: drug removed from the environment of the aortic tissue for 6 hours; cited from earlier work
[5] = oral administration; cited from earlier work
[6] = 10 mg tablet, single dose, hydrochloride

## COC(=O)C1=C(C)NC(C)=C(C(=O)OC(C)(C)CN(C)CCC(c2ccccc2)c2ccccc2)C1c1cccc([N+](=O)[O-])c1 (single isomer, unassigned) [Form (II), lercanidipine hydrochloride]
[1]
  mass variation: < 0.05%
[2]; 10 mg tablet, hydrochloride
  bioequivalence to Form I: not bioequivalent
[2]; 10 mg tablet, listed as Form II, hydrochloride
  bioequivalence to Form I: non equivalent
[2]; 10 mg tablet, single dose, 16 volunteers, hydrochloride
  AUC0−t, geom. least square mean: 10.36 ng·h/mL
[2]; [6]
  Cmax, geom. least square mean: 3.22 ng/mL
  tmax, median: 2.50* h
[2]; T = Form (II) tablet, R = Form (I) tablet (Zanedip 10 mg)
  tmax Point Estimate (T/R), median difference: 0.75** h
[2]; single dose, hydrochloride
  time of maximum concentration (tmax) compared to the other crystalline form: delayed
[3]
  stability: good stability; also recorded: stable
[4]; 0 h, Dog 1, oral 3 mg/kg
  concentration in plasma of lercanidipine (S + R): 0.00 ng/mL
[4]; 0 h, Dog 2, oral 3 mg/kg
  concentration in plasma of lercanidipine (S + R): 0.00 ng/mL
[4]; 0 h, Dog 3, oral 3 mg/kg
  concentration in plasma of lercanidipine (S + R): 0.00 ng/mL
[4]; 0 h, Dog 4, oral 3 mg/kg
  concentration in plasma of lercanidipine (S + R): 0.00 ng/mL
[4]; 0 h, Dog 5, oral 3 mg/kg
  concentration in plasma of lercanidipine (S + R): 0.00 ng/mL
[4]; 0 h, Dog 6, oral 3 mg/kg
  concentration in plasma of lercanidipine (S + R): 0.00 ng/mL
[4]; 0 h, Mean (dog 2 not included), oral 3 mg/kg
  concentration in plasma of lercanidipine (S + R): 0.00 ng/mL
[4]; 0.5 h, Dog 1, oral 3 mg/kg, hydrochloride, 3 mg/kg
  concentration in plasma of lercanidipine (S + R): 0.00 ng/mL
[4]; 0.5 h, Dog 3, oral 3 mg/kg, hydrochloride, 3 mg/kg
  concentration in plasma of lercanidipine (S + R): 6.99 ng/mL
[4]; 0.5 h, Dog 4, oral 3 mg/kg
  concentration in plasma of lercanidipine (S + R): 0.00 ng/mL
[4]; 0.5 h, Dog 5, oral 3 mg/kg
  concentration in plasma of lercanidipine (S + R): 0.00 ng/mL
[4]; 0.5 h, Dog 6, oral 3 mg/kg
  concentration in plasma of lercanidipine (S + R): 0.00 ng/mL
[4]; 0.5 h, Mean (dog 2 not included), oral 3 mg/kg, hydrochloride, 3 mg/kg
  concentration in plasma of lercanidipine (S + R): 1.40 ng/mL
[4]; 1 h, Dog 1, oral 3 mg/kg, hydrochloride, 3 mg/kg
  concentration in plasma of lercanidipine (S + R): 0.00 ng/mL
[4]; 1 h, Dog 3, oral 3 mg/kg, hydrochloride, 3 mg/kg
  concentration in plasma of lercanidipine (S + R): 16.61 ng/mL
[4]; 1 h, Dog 4, oral 3 mg/kg, hydrochloride, 3 mg/kg
  concentration in plasma of lercanidipine (S + R): 5.50 ng/mL
[4]; 1 h, Dog 5, oral 3 mg/kg, hydrochloride, 3 mg/kg
  concentration in plasma of lercanidipine (S + R): 3.28 ng/mL
[4]; 1 h, Dog 6, oral 3 mg/kg
  concentration in plasma of lercanidipine (S + R): 0.00 ng/mL
[4]; 1.5 h, Dog 1, oral 3 mg/kg, hydrochloride, 3 mg/kg
  concentration in plasma of lercanidipine (S + R): 0.23 ng/mL
[4]; 1.5 h, Dog 4, oral 3 mg/kg, hydrochloride, 3 mg/kg
  concentration in plasma of lercanidipine (S + R): 35.43 ng/mL
[4]; 1.5 h, Dog 6, oral 3 mg/kg, hydrochloride, 3 mg/kg
  concentration in plasma of lercanidipine (S + R): 3.49 ng/mL
[4]; 2 h, Dog 1, oral 3 mg/kg, hydrochloride, 3 mg/kg
  concentration in plasma of lercanidipine (S + R): 7.63 ng/mL
[4]; 3 h, Dog 4, oral 3 mg/kg, hydrochloride, 3 mg/kg
  concentration in plasma of lercanidipine (S + R): 28.36 ng/mL
[4]; 3 h, Dog 5, oral 3 mg/kg, hydrochloride, 3 mg/kg
  concentration in plasma of lercanidipine (S + R): 40.57 ng/mL
[4]; 3 h, Dog 6, oral 3 mg/kg, hydrochloride, 3 mg/kg
  concentration in plasma of lercanidipine (S + R): 14.10 ng/mL
[4]; 4 h, Dog 3, oral 3 mg/kg, hydrochloride, 3 mg/kg
  concentration in plasma of lercanidipine (S + R): 14.10 ng/mL
[4]; 4 h, Dog 5, oral 3 mg/kg, hydrochloride, 3 mg/kg
  concentration in plasma of lercanidipine (S + R): 23.66 ng/mL
[4]; 6 h (last sampling time), Mean (dog 2 not included), oral 3 mg/kg, hydrochloride, 3 mg/kg
  concentration in plasma of lercanidipine (S + R): 10.9 ± 6.8 ng/mL
[4]; 6 h, Dog 2, oral 3 mg/kg, hydrochloride, 3 mg/kg
  concentration in plasma of lercanidipine (S + R): 4.50 ng/mL
[4]; Dog 2, oral 3 mg/kg, hydrochloride, 3 mg/kg
  Tmax: 1.50 h
[4]; Dog 3, oral 3 mg/kg, hydrochloride, 3 mg/kg
  Cmax: 19.78 ng/mL
[4]; Dog 4, oral 3 mg/kg, hydrochloride, 3 mg/kg
  Cmax: 52.64 ng/mL
[4]; Dog 6, oral 3 mg/kg, hydrochloride, 3 mg/kg
  Cmax: 18.56 ng/mL

## COC(=O)C1=C(C)NC(C)=C(C(=O)OC(C)(C)CN(C)CCC(c2ccccc2)c2ccccc2)C1c1cccc([N+](=O)[O-])c1 (centres unmarked) [Lercanidipine, methyl 1,1,N-trimethyl-N-(3,3-diphenylpropyl)-2-aminoethyl 1,4-dihydro-2,6-dimethyl-4-(3-nitrophenyl)pyridine-3,5-dicarboxylate]
Isolated rat aorta
  response to high K+ after the drug has been removed: attenuated
[5]
  time of peak plasma levels following dosing: 2 to 3 h
